Source: patent US6936723B2, “Synthetic salicylihalamides, apicularens and derivatives thereof” (Board of Regents, The University of Texas System, priority 2000, dated 2005)
Where two headings read alike, the source gives them in different places.

Tests used:
[1] = system: human melanoma cell line SK-MEL-5; assay: Growth inhibition of the SK-MEL-5 human melanoma cell line (MTT assay); assay type: cell-based; conditions: for GI50: Homo sapiens; for growth inhibitory activity in the cell-based assay: SK-MEL-5 cell-based assay
Experimental: A cell-based assay looking for growth inhibition of the SK-MEL 5 human melanoma cell line was performed.

H1299 = assay: Growth inhibition of tumor cell lines compared to TAXOL: H1299; assay type: cell-based; conditions: Homo sapiens, NCI-H1299
Experimental: (§1) In addition, the ability of compounds 323a/c and 343 to inhibit growth of a number of tumor cell lines was tested and compared to TAXOL's ability to inhibit growth of these tumor cell lines.

H2009 = assay: Growth inhibition of tumor cell lines compared to TAXOL: H2009; assay type: cell-based; conditions: Homo sapiens, NCI-H2009
Experimental: as §1

H358 = assay: Growth inhibition of tumor cell lines compared to TAXOL: H358; assay type: cell-based; conditions: Homo sapiens, NCI-H358
Experimental: as §1

H2058 = assay: Growth inhibition of tumor cell lines compared to TAXOL: H2058; assay type: cell-based
Experimental: as §1

H175 = assay: Growth inhibition of tumor cell lines compared to TAXOL: H175; assay type: cell-based
Experimental: as §1

H1264 = assay: Growth inhibition of tumor cell lines compared to TAXOL: H1264; assay type: cell-based
Experimental: as §1

[2] = molecular target: T1, purified reconstituted V-ATPase from bovine brain (Bos taurus, UniProt P23956+P61420+Q29466+Q2TA24); assay: Inhibition of purified reconstituted V-ATPase (proton pumping); assay type: biochemical
T1 construct: from tissue; host or cells: bovine brain
Description: Therefore, the present invention provides a method for inhibiting the proton-pumping activity of V-ATPase by contacting V-ATPase, either in vitro or in vivo with the compounds of the present invention. […] See Boyd, M. R. et al., J Pharmacol. Exp. Ther. 297, 114-120 (2001); see also, PCT publication WO 00/51589 of Boyd et al. V-ATPase is composed of an ATPase domain and a proton translocating membraneous channel. […] See Crider, Xie and Stone, J. Biol. Chem. 269:17379-17381 (1994) for the experimental procedure for binding. […] See Example 7 and Table 5 below. See also Bill. Crider, Xie and Stone, J Biol. Chem. 269:17379-17381 (1994).
Others in the art typically use crude membrane preparations to assay V-ATPase activity.

NCI 60-cell line panel = assay: NCI 60-cell line human tumor screen (sulforhodamine B); assay type: cell-based; conditions: 48 hours incubation, 10^−6 to 10^−10 molar
Description: The NCI 60-cell line human tumor screen is a measure of the effectiveness of a compound for inhibiting or killing various human cancers. It is a set of 60 different cancer cell lines against which chemical compounds can be tested against to determine if the compound has anti-cancer activity. Each compound has an individual “fingerprint” based on effectiveness in killing each of the 60 cancer cell lines.
The anti-cancer activity of the synthesized (+)- and (−)-salicylihalamide-A compounds of the present invention (compounds 78 in FIG. 10 and 301a/301c in FIG. 14.) was indistinguishable. […] Salicylihalamide derivatives, showing increased stability over natural salicylihalamide, were tested in the NCI 60 cell-line screen. This screen is an art recognized model. Prior to assay, synthesized compounds were stored in dimethylsulfoxide at −70° C. Five different test concentrations of each compound were prepared by diluting the stock solution into complete medium. Sample concentrations were 2× the final concentration and range from 10^−6 and 10^−10 molar. An aliquot of each concentration of each compound was added to separate microtiter wells containing the respective cell lines in culture medium. The plates were incubated for 48 hours at 37° C. with 5% CO2 and 100% humidity. Adherent cells were fixed by addition of cold 50% trichloracetic acid and incubation at 4° C. for 60 minutes. Suspended cells were fixed to the bottom of the well by addition of 80% trichloracetic acid. The supernatant was removed from each well and then each well was washed with deionized water and allowed to dry. Sulforhodamine B solution was added to each well and allowed to incubate for 10 minutes at room temperature. Unbound sulforhodamine B was removed by washing with 1% acetic acid. The wells were allowed to dry. Bound sulforhodamine B was solubilized using 10 mM Tris base and the optical density at 515 nanometers was determined.

SK-MEL-28 cells = assay: Anti-cancer activity against SK-MEL-28 cells; assay type: cell-based, human
Description: The inventor has accomplished the first synthesis of both […] and (−)-salicylihalamide A. The synthesis utilizes a highly efficient, trans-selective ring-closing olefin metathesis for the assembly of the benzolactone skeleton and can be readily adapted to obtain a variety of analogs. […] This cell line is one of the cell lines in the NCI 60 cell line screen.
The absolute configuration of natural salicylihalamide A (1a) was originally misassigned in Boyd et al., 1997. The correct configuration is represented by structure 89. The ultimate proof for this assignment came from a crystallographic analysis of a p-bromobenzoate derivative of salicylihalamide 90, prepared from 73 in a manner similar to the synthesis of 74. […] (−)-salicylihalamide A does have chemotherapeutic activity. […] This cell line is one of the cell lines in the NCI 60 cell line screen.

[3] = molecular target: trans-membraneous proton channel domain of V-ATPase (Bos taurus, UniProt P23956+P61420+Q29466+Q2TA24); assay: Incubation with V-ATPase domains independently: proton channel domain; assay type: biochemical
Sequence of trans-membraneous proton channel domain of V-ATPase (P61420 whole entry, other chains not shown, the tested form may be a part): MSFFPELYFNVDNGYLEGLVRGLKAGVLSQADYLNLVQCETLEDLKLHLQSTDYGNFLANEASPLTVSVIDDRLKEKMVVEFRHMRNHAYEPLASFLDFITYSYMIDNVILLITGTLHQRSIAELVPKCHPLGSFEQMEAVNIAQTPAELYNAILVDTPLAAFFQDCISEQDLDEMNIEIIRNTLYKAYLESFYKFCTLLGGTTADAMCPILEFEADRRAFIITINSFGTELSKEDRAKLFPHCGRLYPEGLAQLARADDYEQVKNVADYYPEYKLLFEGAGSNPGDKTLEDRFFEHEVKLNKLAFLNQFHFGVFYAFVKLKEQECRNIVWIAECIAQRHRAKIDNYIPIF
Sequence of trans-membraneous proton channel domain of V-ATPase (P23956 whole entry, other chains not shown, the tested form may be a part): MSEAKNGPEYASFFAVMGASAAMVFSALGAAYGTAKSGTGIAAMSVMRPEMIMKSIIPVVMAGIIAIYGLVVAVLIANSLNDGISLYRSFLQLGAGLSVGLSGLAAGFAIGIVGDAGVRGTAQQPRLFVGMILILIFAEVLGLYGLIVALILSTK
Sequence of trans-membraneous proton channel domain of V-ATPase (Q29466 whole entry, other chains not shown, the tested form may be a part): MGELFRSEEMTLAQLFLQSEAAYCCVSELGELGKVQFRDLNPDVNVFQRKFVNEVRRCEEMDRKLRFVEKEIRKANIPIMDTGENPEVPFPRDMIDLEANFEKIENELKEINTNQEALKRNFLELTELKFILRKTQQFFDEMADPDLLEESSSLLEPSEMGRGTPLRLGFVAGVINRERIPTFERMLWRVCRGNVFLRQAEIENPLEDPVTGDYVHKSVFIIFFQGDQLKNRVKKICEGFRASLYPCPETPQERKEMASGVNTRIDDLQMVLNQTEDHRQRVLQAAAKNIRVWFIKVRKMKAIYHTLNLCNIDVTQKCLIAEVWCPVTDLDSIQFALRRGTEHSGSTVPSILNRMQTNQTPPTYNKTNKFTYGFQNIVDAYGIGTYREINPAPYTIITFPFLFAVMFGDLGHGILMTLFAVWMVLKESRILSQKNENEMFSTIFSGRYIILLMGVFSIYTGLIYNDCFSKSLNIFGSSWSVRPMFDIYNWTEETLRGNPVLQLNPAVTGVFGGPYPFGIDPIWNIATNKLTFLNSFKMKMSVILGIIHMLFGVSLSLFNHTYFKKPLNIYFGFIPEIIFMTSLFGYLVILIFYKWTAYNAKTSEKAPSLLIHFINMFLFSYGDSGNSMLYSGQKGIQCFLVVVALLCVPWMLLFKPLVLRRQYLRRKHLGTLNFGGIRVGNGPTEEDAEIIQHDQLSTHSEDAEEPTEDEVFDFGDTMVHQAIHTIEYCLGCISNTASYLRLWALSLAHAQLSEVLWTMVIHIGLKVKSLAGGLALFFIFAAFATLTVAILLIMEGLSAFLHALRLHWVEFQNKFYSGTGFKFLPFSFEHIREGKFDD
Sequence of trans-membraneous proton channel domain of V-ATPase (Q2TA24 whole entry, other chains not shown, the tested form may be a part): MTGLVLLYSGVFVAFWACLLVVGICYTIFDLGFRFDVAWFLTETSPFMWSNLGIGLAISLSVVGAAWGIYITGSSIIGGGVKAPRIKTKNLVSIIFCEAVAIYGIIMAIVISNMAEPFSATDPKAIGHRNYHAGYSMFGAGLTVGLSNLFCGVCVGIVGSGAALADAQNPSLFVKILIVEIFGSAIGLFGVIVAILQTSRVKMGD
Description: Therefore, the present invention provides a method for inhibiting the proton-pumping activity of V-ATPase by contacting V-ATPase, either in vitro or in vivo with the compounds of the present invention. Inhibition of the proton-pumping activity of V-ATPase is useful, inter alia, for the treatment and prevention of cancer and osteoporosis. […] See Boyd, M. R. et al., J Pharmacol. Exp. Ther. 297, 114-120 (2001); see also, PCT publication WO 00/51589 of Boyd et al. V-ATPase is composed of an ATPase domain and a proton translocating membraneous channel. […] See Crider, Xie and Stone, J. Biol. Chem. 269:17379-17381 (1994) for the experimental procedure for binding. This was shown by incubating select compounds of the present invention with the domains independently and showing that 70% of the channel activity was inhibited at 1 nM of the compound while there was virtually no interference with ATPase activity at the same concentration. See Example 7 and Table 5 below. See also Bill. Crider, Xie and Stone, J Biol. Chem. 269:17379-17381 (1994).

[4] = 48 h, SK-MEL-5, growth determined 2 days after addition by MTT assay, triplicate assays at 4 concentrations, read-out: GI50
[5] = purified reconstituted V-ATPase from bovine brain, inhibition of proton pumping, read-out: IC50

CC/C=C\C=C/C(=O)N/C=C/C[C@H]1C[C@@H](O)[C@@H](C)C/C=C/Cc2cccc(O)c2C(=O)O1 [301a/301c]
GI50 ([1]; SK-MEL-5, 48 h): 30 nM | GI50 (H1299): 3.2 nM | GI50 (H2009): 2 nM | GI50 (H358): 1.6 nM | GI50 (H2058): 3.2 nM | GI50 (H175): 0.2 nM | GI50 (H1264): 31.6 nM | IC50 [2]: 0.34 nM | activity / differential cytotoxicity profile in the NCI 60-cell line screen (NCI 60-cell line panel; listed as 1:1 mixture of salicylihalamide A (1) and C22-E isomer 211): indistinguishable, within the limits of experimental error, from natural salicylihalamide A

CCC=CC=CC(=O)NC=CCC1CC2CC(O)CC(Cc3cccc(O)c3C(=O)O1)O2 (centres unmarked) [Apicularen A]
GI50 [1, 4]: 6 nM | IC50 [2]: < 1 nM

CO/C1=C\C(C)=C\[C@@H](C)[C@@H](O)[C@@H](C)C/C(C)=C/C=C/[C@H](OC)[C@@H]([C@@H](C)[C@@H](O)[C@H](C)[C@@]2(O)C[C@@H](O)[C@H](C)[C@@H](C(C)C)O2)OC1=O [Bafilomycin A, reference compound]
IC50 [2, 5]: 3.1 nM

CC/C=C\C=C/C(=O)N/C=C/C[C@H]1C[C@@H](O)[C@@H](C)C/C=C/Cc2cccc(O)c2C(=O)O1 [Compound 301a, salicylihalamide A]
mode of V-ATPase inhibition (reversibility) [2]: reversible inhibitor | anti-cancer activity against SK-MEL-28 cells (SK-MEL-28 cells; at 10 nM): active | activity / differential cytotoxicity profile in the NCI 60-cell line screen (NCI 60-cell line panel): differential cytotoxicity profile undistinguishable from the natural product | binding site on V-ATPase [3]: membrane spanning Vo proton channel

C=CCOC(=O)/C=C/CC1C[C@@H](O)[C@@H](C)C/C=C/Cc2cccc(O)c2C(=O)O1 (some centres unmarked) [Compound 335b]
GI50 [1, 4]: > 20000 nM | growth inhibitory activity in the cell-based assay [1]: completely inactive | IC50 [2, 5]: 230 nM

CC/C=C\C=C/C(=O)N(/C=C/C[C@H]1C[C@@H](O)[C@@H](C)C/C=C/Cc2cccc(O)c2C(=O)O1)C(=O)N/C=C/C[C@H]1C[C@@H](O)[C@@H](C)C/C=C/Cc2cccc(O)c2C(=O)O1 [Compound 343]
GI50 ([1]; SK-MEL-5, 48 h): 40 nM | GI50 (H1299): 5 nM | GI50 (H2009): 1.6 nM | GI50 (H358): 10 nM | GI50 (H2058): 6.3 nM | GI50 (H175): 0.2 nM | GI50 (H1264): 31.6 nM | IC50 [2]: 0.37 nM

CCCCCCC(=O)N(/C=C/C[C@H]1C[C@@H](O)[C@@H](C)C/C=C/Cc2cccc(O)c2C(=O)O1)C(=O)N/C=C/C[C@H]1C[C@@H](O)[C@@H](C)C/C=C/Cc2cccc(O)c2C(=O)O1 [Compound 345]
GI50 [1, 4]: 600 nM | IC50 [2]: 3 nM

CCCCCCC(=O)N/C=C/C[C@H]1C[C@@H](O)[C@@H](C)C/C=C/Cc2cccc(O)c2C(=O)O1 [Compound 346]
GI50 [1, 4]: 380 nM | IC50 [2]: 0.8 nM

C[C@H]1C/C=C/Cc2cccc(O)c2C(=O)OC(C/C=C/NC(=O)C#Cc2ccccc2)C[C@H]1O (some centres unmarked) [Compound 349]
GI50 [1, 4]: 300 nM | IC50 [2]: 0.75 nM

CCCCC#CC(=O)N/C=C/CC1C[C@@H](O)[C@@H](C)C/C=C/Cc2cccc(O)c2C(=O)O1 (some centres unmarked) [Compound 350]
GI50 [1, 4]: 300 nM | IC50 [2]: 1 nM

CCCCCOC(=O)N/C=C/C[C@H]1C[C@@H](O)[C@@H](C)C/C=C/Cc2cccc(O)c2C(=O)O1 [Compound 351]
GI50 [1, 4]: 500 nM | IC50 [2]: 0.2 nM

CCCCCSC(=O)N/C=C/CC1C[C@@H](O)[C@@H](C)C/C=C/Cc2cccc(O)c2C(=O)O1 (some centres unmarked) [Compound 352]
GI50 [1, 4]: 450 nM | IC50 [2]: 1.8 nM

CC(C)=CCC/C(C)=C/CC/C(C)=C/COC(=O)N/C=C/CC1C[C@@H](O)[C@@H](C)C/C=C/Cc2cccc(O)c2C(=O)O1 (some centres unmarked) [Compound 353]
GI50 [1, 4]: > 20000 nM | IC50 [2]: > 1800 nM

CCCCCCCC(=O)OCC[C@H]1C[C@@H](O)[C@@H](C)C/C=C/Cc2cccc(O)c2C(=O)O1 [Compound 355]
GI50 [1, 4]: > 20000 nM | growth inhibitory activity in the cell-based assay [1]: completely inactive | IC50 [2, 5]: > 1000 nM

CCCCCOC(=O)N/C=C/C[C@H]1C[C@@H](O)[C@@H](C)CCCCc2cccc(O)c2C(=O)O1 [Compound 361]
GI50 [1, 4]: 8000 nM | growth inhibitory activity in the cell-based assay [1]: retained a significant, although attenuated, level of growth inhibitory activity | IC50 [2]: 9.3 nM

CCCCCOC(=O)NCCC[C@H]1C[C@@H](O)[C@@H](C)CCCCc2cccc(O)c2C(=O)O1 [Compound 362]
GI50 [1, 4]: > 20000 nM | growth inhibitory activity in the cell-based assay [1]: completely abolished antiproliferative potential | IC50 [2]: 75.7 nM

CCCCCOC(=O)N/C=C/C[C@H]1C[C@@H](O)[C@@H](C)C/C=C/Cc2cccc(OC(=O)c3ccccc3)c2C(=O)O1 [Compound 366]
GI50 [1, 4]: 1000 nM | IC50 [2, 5]: 300 nM

CC(=O)O[C@H]1C(=O)[C@@]2(C)[C@H]([C@H](OC(=O)c3ccccc3)[C@]3(O)C[C@H](OC(=O)[C@H](O)[C@@H](NC(=O)c4ccccc4)c4ccccc4)C(C)=C1C3(C)C)[C@]1(OC(C)=O)CO[C@@H]1C[C@@H]2O [TAXOL, reference compound]
GI50 (H1299; cell line H1299, read-out: GI50): 5 nM | GI50 (H2009; cell line H2009, read-out: GI50): 5 nM | GI50 (H358; cell line H358, read-out: GI50): 5 nM | GI50 (H2058; cell line H2058, read-out: GI50): 5 nM | GI50 (H175; cell line H175, read-out: GI50): 5 nM | GI50 (H1264; cell line H1264, read-out: GI50): 5 nM

(+)-salicylihalamide A [Compound 87]
IC50 [2, 5]: 270 nM | anti-cancer activity against SK-MEL-28 cells (SK-MEL-28 cells; at 20 μM): inactive | activity / differential cytotoxicity profile in the NCI 60-cell line screen (NCI 60-cell line panel): completerly inactive | activity / differential cytotoxicity profile in the NCI 60-cell line screen (NCI 60-cell line panel; listed as ent-301a): devoid of growth inhibitory activity
